Bridge positions count the residues as written; N and C are the ends. Square brackets hold non-standard residues; d marks the D form. Ends that are not written are not given here. Peptide text beside a SMILES is read from it. R8 = C=CCCCCCC[C@@](C)(N)C(=O)O; S5 = C=CCCC[C@](C)(N)C(=O)O
Assays:
[1] = On-resin ring-closing olefin metathesis (all-hydrocarbon stapling, S5/S5 i,i+4 or R8/S5 i,i+7), first-generation Grubbs catalyst (3 equiv); then Fmoc removal, TFA cleavage, RP-HPLC; details: the molecule shown is the open-chain precursor, 21-membered ring, 1,2-dichloroethane (dry), 25.0 °C, 4.0 h
[2] = Circular dichroism spectroscopy, percent helicity; type: physicochemical; details: CD, TFE/water (1:1), 0.1 mg/ml, 20°C
Experimental: Peptides were dissolved in TFE/water (1:1, v/v, 0.1 mg/ml). CD data were recorded in 10-mm path length, a quartz cell at 20°C. Percent helicity was calculated by the following equation ([Wang et al., 2006]). α=[θ]222/[θ]max×100% [θ]222 is the molar ellipticity of 222 nm; [θ]max = (−44,000 + 250T) (1 − k/n), where k = 4, n is the numbers of amino acids, and T = 20°C.

α-chymotrypsin = α-chymotrypsin (Bos taurus, UniProt P00766); test: in vitro; details: for Degradation during protease exposure: 1 h
Experimental: Peptides in DMSO solution (1 mM) was mixed with α-chymotrypsin in PBS buffer (0.5 ng/μl) containing 2 mM CaCl2 and incubated at 37°C. The percentage of peptide was measured by HPLC at 0, 5, 10, 20, 30, and 60 min([Wang et al., 2020]).

rabbit red blood cells = details: 4% rabbit red blood cells, 1 h, 37°C
Experimental: Two hundred microliters of 4% rabbit red blood cells in a 96-well plate was added different concentrations of peptides. After 1 h of incubation at 37°C and following centrifugation, the release of hemoglobin was monitored by the absorbance at 450 nm of supernatant. Zero hemolysis was determined without adding any other reagents, and 100% hemolysis was determined in 10% Triton X-100. Hemolysis percentage hemolysis was calculated as: (Apeptide − Ablank)/(ATriton − Ablank) × 100%. All hemolysis determinations were conducted in three repeated experiments ([Deng et al., 2015]).

HUH-7 = details: read-out: IC50 HUH-7; CCK-8, 48 h
Experimental: (§1) MCF-7, HUH-7, U87, and Nthy-ori 3-1 cell lines were used to test cell viability. All the cell lines were cultured in a humid environment at 37°C with 5% CO2. The anticancer activity of B1 and its derivatives were evaluated by the CCK-8 reagent. All peptides tested were dissolved in DMSO and finally added to each well in 1‰ volume. The cells were seeded in a 96-well plate at a number of 5 × 10^3 cells per well. After overnight incubation, they were administered with different concentrations of peptides. Ten percent CCK-8 solution without FBS was added to each well after 48 h. After incubation at 37°C for 30 min, the optical density (OD) at 450 nm was recorded with a microplate reader ([Deng et al., 2015]).

MCF-7 = details: read-out: IC50 MCF-7; CCK-8, 48 h
Experimental: as §1

U87 = details: read-out: IC50 U87; CCK-8, 48 h
Experimental: as §1

[3] = α-chymotrypsin (0.5 ng/μl) in PBS buffer

Work on C=CCCC[C@](C)(NC(=O)[C@H](CCCNC(=N)NS(=O)(=O)c1c(C)c(C)c2c(c1C)CC(C)(C)O2)NC(=O)[C@H](Cc1ccccc1)NC(=O)[C@H](Cc1ccccc1)NC(=O)[C@](C)(CCCC=C)NC(=O)[C@H](CCCCNC(=O)OC(C)(C)C)NC(=O)[C@H](Cc1ccccc1)NC(=O)[C@H](CCCNC(=N)NS(=O)(=O)c1c(C)c(C)c2c(c1C)CC(C)(C)O2)NC(=O)[C@H](CCCCNC(=O)OC(C)(C)C)NC(=O)[C@@H](NC(=O)OCC1c2ccccc2-c2ccccc21)C(C)C)C(=O)N[C@@H](CC(C)C)C(=O)N[C@@H](CCCCNC(=O)OC(C)(C)C)C(=O)N[C@@H](CCCCNC(=O)OC(C)(C)C)C(=O)N[C@@H](CC(C)C)C(=O)N[C@H](C(N)=O)C(C)C yielded a ring closure, overall yield [1] of 66%.

C=CCCC[C@](C)(NC(=O)[C@H](Cc1ccccc1)NC(=O)[C@H](Cc1ccccc1)NC(=O)[C@H](CCCCNC(=O)OC(C)(C)C)NC(=O)[C@H](CCCCNC(=O)OC(C)(C)C)NC(=O)[C@H](Cc1ccccc1)NC(=O)[C@H](CCCNC(=N)NS(=O)(=O)c1c(C)c(C)c2c(c1C)CC(C)(C)O2)NC(=O)[C@H](CCCCNC(=O)OC(C)(C)C)NC(=O)[C@@H](NC(=O)OCC1c2ccccc2-c2ccccc21)C(C)C)C(=O)N[C@@H](CCCCNC(=O)OC(C)(C)C)C(=O)N[C@@H](CC(C)C)C(=O)N[C@@H](CCCCNC(=O)OC(C)(C)C)C(=O)N[C@@](C)(CCCC=C)C(=O)N[C@@H](CC(C)C)C(=O)N[C@H](C(N)=O)C(C)C showed a ring closure, overall yield [1] of 68%.

Work on C=CCCC[C@](C)(NC(=O)[C@H](Cc1ccccc1)NC(=O)[C@H](Cc1ccccc1)NC(=O)[C@H](CCCCNC(=O)OC(C)(C)C)NC(=O)[C@](C)(CCCC=C)NC(=O)[C@H](Cc1ccccc1)NC(=O)[C@H](CCCNC(=N)NS(=O)(=O)c1c(C)c(C)c2c(c1C)CC(C)(C)O2)NC(=O)[C@H](CCCCNC(=O)OC(C)(C)C)NC(=O)[C@@H](NC(=O)OCC1c2ccccc2-c2ccccc21)C(C)C)C(=O)N[C@@H](CCCCNC(=O)OC(C)(C)C)C(=O)N[C@@H](CC(C)C)C(=O)N[C@@H](CCCCNC(=O)OC(C)(C)C)C(=O)N[C@@H](CCCCNC(=O)OC(C)(C)C)C(=O)N[C@@H](CC(C)C)C(=O)N[C@H](C(N)=O)C(C)C yielded a ring closure, overall yield [1] of 64%.

With CC(C)C[C@H](NC(=O)[C@H](CCCCN)NC(=O)[C@H](CCCNC(=N)N)NC(=O)[C@H](Cc1ccccc1)NC(=O)[C@H](Cc1ccccc1)NC(=O)[C@]1(C)CCC/C=C\CCC[C@](C)(NC(=O)[C@@H](N)C(C)C)C(=O)N[C@@H](CCCNC(=N)N)C(=O)N[C@@H](Cc2ccccc2)C(=O)N[C@@H](CCCCN)C(=O)N1)C(=O)N[C@@H](CCCCN)C(=O)N[C@@H](CCCCN)C(=O)N[C@@H](CC(C)C)C(=O)N[C@H](C(N)=O)C(C)C [B1-L-1, VS5RFKS5FFRKLKKLV-NH2] (H-V[S5]RFK[S5]FFRKLKKLV-NH2; staple (Z) 2-6) the “Helicity (%)” value [2] was 47.2% and the half-life (α-chymotrypsin; α-chymotrypsin) was > 60 min.

With CC(C)C[C@H](NC(=O)[C@H](CCCCN)NC(=O)[C@]1(C)CCCC=CCCC[C@](C)(NC(=O)[C@H](Cc2ccccc2)NC(=O)[C@H](CCCNC(=N)N)NC(=O)[C@H](CCCCN)NC(=O)[C@@H](N)C(C)C)C(=O)N[C@@H](CCCCN)C(=O)N[C@@H](Cc2ccccc2)C(=O)N[C@@H](Cc2ccccc2)C(=O)N1)C(=O)N[C@@H](CCCCN)C(=O)N[C@@H](CCCCN)C(=O)N[C@@H](CC(C)C)C(=O)N[C@H](C(N)=O)C(C)C [B1-L-2, VKRFS5KFFS5KLKKLV-NH2] (H-VKRF[S5]KFF[S5]KLKKLV-NH2; staple 5-9; N-terminus assumed) the “Helicity (%)” value [2] was 35.5%, the “HC50, half hemolysis concentration” value (rabbit red blood cells) was >80 µM and the half-life (α-chymotrypsin; [3]) was > 60 min. The IC50 (HUH-7) was 6.18 ± 0.63 µM, the IC50 (MCF-7) was 6.59 ± 0.42 µM and the IC50 (U87) was 8.86 ± 1.43 µM.

With CC(C)C[C@H](NC(=O)[C@H](CCCCN)NC(=O)[C@H](CCCCN)NC(=O)[C@H](CC(C)C)NC(=O)[C@]1(C)CCCC=CCCC[C@](C)(NC(=O)[C@H](CCCCN)NC(=O)[C@H](Cc2ccccc2)NC(=O)[C@H](CCCNC(=N)N)NC(=O)[C@H](CCCCN)NC(=O)[C@@H](N)C(C)C)C(=O)N[C@@H](Cc2ccccc2)C(=O)N[C@@H](Cc2ccccc2)C(=O)N[C@@H](CCCNC(=N)N)C(=O)N1)C(=O)N[C@H](C(N)=O)C(C)C [B1-L-3, VKRFKS5FFRS5LKKLV-NH2] (H-VKRFK[S5]FFR[S5]LKKLV-NH2; staple 6-10; N-terminus assumed) the “Helicity (%)” value [2] was 37%, the “HC50, half hemolysis concentration” value (rabbit red blood cells) was >80 µM and the half-life (α-chymotrypsin; [3]) was > 60 min. The IC50 (HUH-7) was 5.96 ± 0.54 µM, the IC50 (MCF-7) was 5.48 ± 0.89 µM and the IC50 (U87) was 3.59 ± 1.2 µM.

In the case of CC(C)C[C@@H]1NC(=O)[C@H](CCCCN)NC(=O)[C@@](C)(NC(=O)[C@H](Cc2ccccc2)NC(=O)[C@H](Cc2ccccc2)NC(=O)[C@H](CCCCN)NC(=O)[C@H](CCCCN)NC(=O)[C@H](Cc2ccccc2)NC(=O)[C@H](CCCNC(=N)N)NC(=O)[C@H](CCCCN)NC(=O)[C@@H](N)C(C)C)CCCC=CCCC[C@@](C)(C(=O)N[C@@H](CC(C)C)C(=O)N[C@H](C(N)=O)C(C)C)NC(=O)[C@H](CCCCN)NC1=O [B1-L-4, VKRFKKFFS5KLKS5LV-NH2] (H-VKRFKKFF[S5]KLK[S5]LV-NH2; staple 9-13; N-terminus assumed), the “Helicity (%)” value [2] is reported as 35%, the “HC50, half hemolysis concentration” value (rabbit red blood cells) is reported as >80 µM and the half-life (α-chymotrypsin; [3]) is reported as > 60 min. It also gave an IC50 (HUH-7) of 13.4 ± 1.92 µM, an IC50 (MCF-7) of 15.2 ± 1.02 µM and an IC50 (U87) of 17.9 ± 3.23 µM.

In the case of CC(C)C[C@H](NC(=O)[C@H](CCCCN)NC(=O)[C@]1(C)CCCC=CCCCCCC[C@@](C)(NC(=O)[C@@H](N)C(C)C)C(=O)N[C@@H](CCCNC(=N)N)C(=O)N[C@@H](Cc2ccccc2)C(=O)N[C@@H](CCCCN)C(=O)N[C@@H](CCCCN)C(=O)N[C@@H](Cc2ccccc2)C(=O)N[C@@H](Cc2ccccc2)C(=O)N1)C(=O)N[C@@H](CCCCN)C(=O)N[C@@H](CCCCN)C(=O)N[C@@H](CC(C)C)C(=O)N[C@H](C(N)=O)C(C)C [B1-L-5, VR8RFKKFFS5KLKKLV-NH2] (H-V[R8]RFKKFF[S5]KLKKLV-NH2; staple 2-9; N-terminus assumed), the “Helicity (%)” value [2] is reported as 24.8%, the “HC50, half hemolysis concentration” value (rabbit red blood cells) is reported as >80 µM and the half-life (α-chymotrypsin; [3]) is reported as > 60 min. The IC50 (HUH-7) was 13.8 ± 1.53 µM, the IC50 (MCF-7) was 14 ± 0.73 µM and the IC50 (U87) was 14.3 ± 2.35 µM.

For CC(C)C[C@H](NC(=O)[C@H](CCCCN)NC(=O)[C@]1(C)CCCC=CCCCCCC[C@@](C)(NC(=O)[C@H](Cc2ccccc2)NC(=O)[C@H](CCCNC(=N)N)NC(=O)[C@H](CCCCN)NC(=O)[C@@H](N)C(C)C)C(=O)N[C@@H](CCCCN)C(=O)N[C@@H](Cc2ccccc2)C(=O)N[C@@H](Cc2ccccc2)C(=O)N[C@@H](CCCNC(=N)N)C(=O)N[C@@H](CCCCN)C(=O)N[C@@H](CC(C)C)C(=O)N1)C(=O)N[C@H](C(N)=O)C(C)C [B1-L-6, VKRFR8KFFRKLS5KLV-NH2] (H-VKRF[R8]KFFRKL[S5]KLV-NH2; staple 5-12; N-terminus assumed), the “Helicity (%)” value [2] was 39.8%, the “HC50, half hemolysis concentration” value (rabbit red blood cells) was >80 µM and the half-life (α-chymotrypsin; [3]) was 55.3 min. It also gave an IC50 (HUH-7) of 5.89 ± 0.43 µM, an IC50 (MCF-7) of 5.15 ± 1.04 µM and an IC50 (U87) of 4.58 ± 0.93 µM.

With CC(C)C[C@@H]1NC(=O)[C@H](CCCCN)NC(=O)[C@H](CCCNC(=N)N)NC(=O)[C@H](Cc2ccccc2)NC(=O)[C@H](Cc2ccccc2)NC(=O)[C@](C)(NC(=O)[C@H](CCCCN)NC(=O)[C@H](Cc2ccccc2)NC(=O)[C@H](CCCNC(=N)N)NC(=O)[C@H](CCCCN)NC(=O)[C@@H](N)C(C)C)CCCCCCC=CCCC[C@@](C)(C(=O)N[C@@H](CC(C)C)C(=O)N[C@H](C(N)=O)C(C)C)NC(=O)[C@H](CCCCN)NC1=O [B1-L-7, VKRFKR8FFRKLKS5LV-NH2] (H-VKRFK[R8]FFRKLK[S5]LV-NH2; staple 6-13; N-terminus assumed) the “Helicity (%)” value [2] was 31.6%, the “HC50, half hemolysis concentration” value (rabbit red blood cells) was >80 µM and the half-life (α-chymotrypsin; [3]) was > 60 min. The IC50 (HUH-7) was 7.49 ± 1.2 µM, the IC50 (MCF-7) was 13.4 ± 1.22 µM and the IC50 (U87) was 12.7 ± 1.63 µM.

With “VKRFKKFFRKLKKLV-NH2 [B1-Leu, VKRFKKFFRKLKKLV-NH2]” the “Helicity (%)” value [2] was 23.5%, the “HC50, half hemolysis concentration” value (rabbit red blood cells) was >80 µM and the half-life (α-chymotrypsin; [3]) was 8.5 min. The “Degradation during protease exposure” value (α-chymotrypsin; α-chymotrypsin) was “completely degraded”, the IC50 (HUH-7) was 11.8 ± 0.72 µM and the IC50 (MCF-7) was 13.4 ± 0.53 µM. For the same compound, the IC50 (U87) was 16.2 ± 3.32 µM.

With “VKRFKKFFRKLKKSV-NH2 [B1, VKRFKKFFRKLKKSV-NH2, reference compound]” the “Helicity (%)” value [2] was 8.9%, the “HC50, half hemolysis concentration” value (rabbit red blood cells) was >80 µM and the half-life (α-chymotrypsin; [3]) was 8.3 min. For the same compound, the “Degradation during protease exposure” value (α-chymotrypsin; α-chymotrypsin) was “completely degraded”, the IC50 (HUH-7) was > 50 µM and the IC50 (MCF-7) was > 50 µM. The IC50 (U87) was > 50 µM.

— publication PMC9021566, “Design, Synthesis, and Antitumor Activity Study of All-Hydrocarbon-Stapled B1-Leu Peptides” (Frontiers in Chemistry, 2022)
